The source made the active and inactive calls. How the calls were made is not given here.
Tested on: CCRIS mutagenicity, Ames/micronucleus/aberration tests
Assay: CCRIS mutagenicity studies
[1] = Test System: AMES SALMONELLA TYPHIMURIUM, Strain/Indicator: TA98, Metabolic Activation: NONE, Method: STANDARD PLATE
[2] = Test System: AMES SALMONELLA TYPHIMURIUM, Strain/Indicator: TA98, Metabolic Activation: RAT, LIVER, S-9, AROCLOR 1254, Method: STANDARD PLATE
[3] = Test System: AMES SALMONELLA TYPHIMURIUM, Strain/Indicator: TA100, Metabolic Activation: NONE, Method: STANDARD PLATE
[4] = Test System: AMES SALMONELLA TYPHIMURIUM, Strain/Indicator: TA102, Metabolic Activation: NONE, Method: STANDARD PLATE
[5] = Test System: AMES SALMONELLA TYPHIMURIUM, Strain/Indicator: TA1537, Metabolic Activation: NONE, Method: STANDARD PLATE
[6] = Test System: AMES SALMONELLA TYPHIMURIUM, Strain/Indicator: TA98, Metabolic Activation: NONE, Method: PREINCUBATION
[7] = Test System: AMES SALMONELLA TYPHIMURIUM, Strain/Indicator: TA100, Metabolic Activation: NONE, Method: PREINCUBATION

Structure (SMILES): CC(=O)ON(C(C)=O)c1ccc(Sc2ccccc2)cc1
- mutagenic call (Test System: AMES SALMONELLA TYPHIMURIUM, Strain/Indicator: TA98(1,8-DNP6), Metabolic Activation: NONE, Method: STANDARD PLATE): active; positive
- mutagenic call [1]: active; positive
- mutagenic call [2]: active; positive

Structure (SMILES): Cc1c(N)c(=O)n(-c2ccccc2)n1C
- mutagenic call (Test System: AMES SALMONELLA TYPHIMURIUM, Strain/Indicator: TA97, Metabolic Activation: NONE, Method: STANDARD PLATE): active; positive
- mutagenic call (Test System: AMES SALMONELLA TYPHIMURIUM, Strain/Indicator: TA97, Metabolic Activation: RAT, LIVER, S-9, AROCLOR 1254, Method: STANDARD PLATE): active; positive
- mutagenic call (Test System: AMES SALMONELLA TYPHIMURIUM, Strain/Indicator: TA97A, Metabolic Activation: RAT, LIVER, S-9, AROCLOR 1254, Method: STANDARD PLATE): active; positive
- mutagenic call [1]: inactive; negative
- mutagenic call [2]: inactive; negative
- mutagenic call [3]: inactive; negative
- mutagenic call (Test System: AMES SALMONELLA TYPHIMURIUM, Strain/Indicator: TA100, Metabolic Activation: RAT, LIVER, S-9, AROCLOR 1254, Method: STANDARD PLATE): inactive; negative
- mutagenic call [4]: inactive; negative
- mutagenic call (Test System: AMES SALMONELLA TYPHIMURIUM, Strain/Indicator: TA102, Metabolic Activation: RAT, LIVER, S-9, AROCLOR 1254, Method: STANDARD PLATE): inactive; negative
- mutagenic call (Test System: AMES SALMONELLA TYPHIMURIUM, Strain/Indicator: TA104, Metabolic Activation: NONE, Method: STANDARD PLATE): inactive; negative
- mutagenic call (Test System: AMES SALMONELLA TYPHIMURIUM, Strain/Indicator: TA104, Metabolic Activation: RAT, LIVER, S-9, AROCLOR 1254, Method: STANDARD PLATE): inactive; negative
- mutagenic call [5]: inactive; negative
- mutagenic call (Test System: AMES SALMONELLA TYPHIMURIUM, Strain/Indicator: TA1537, Metabolic Activation: RAT, LIVER, S-9, AROCLOR 1254, Method: STANDARD PLATE): inactive; negative

Structure (SMILES): Cn1c(N)nc2cc3ccccc3cc21
- mutagenic call (Test System: AMES SALMONELLA TYPHIMURIUM, Strain/Indicator: TA98, Metabolic Activation: RAT, LIVER, S-9, AROCLOR 1254A, Method: STANDARD PLATE): active; positive
- mutagenic call (Test System: AMES SALMONELLA TYPHIMURIUM, Strain/Indicator: YG1024, Metabolic Activation: RAT, LIVER, S-9, AROCLOR 1254A, Method: STANDARD PLATE): active; positive

Structure (SMILES): Cc1c(N)nc(C(CC(N)=O)NCC(N)C(N)=O)nc1C(=O)NC(C(=O)NC(C)C(O)C(C)C(=O)NC(C(=O)NCCc1nc(-c2nc(C(=O)NCCC[S+](C)C)cs2)cs1)C(C)O)C(O[C@@H]1O[C@@H](CO)[C@@H](O)[C@H](O)[C@@H]1O[C@H]1O[C@H](CO)[C@@H](O)[C@H](OC(N)=O)[C@@H]1O)c1cnc[nH]1 (stereo not given in full)
- mutagenic call (End Point: IN VITRO MICRONUCLEUS, Test System: CHO CELLS, Metabolic Activation: RAT, LIVER, S-9, AROCLOR 1254): active; positive
- mutagenic call (End Point: In vitro micronucleus, Test System: Human lymphocytes from 200 volunteers (128 women, 72 men), Metabolic Activation: None): inactive; positive for gstt1-null and xd polymorphisms and spontaneous and bleomycin-induc
- mutagenic call [6]: inactive; negative
- mutagenic call (Test System: AMES SALMONELLA TYPHIMURIUM, Strain/Indicator: TA98, Metabolic Activation: S-9, Method: PREINCUBATION): inactive; negative
- mutagenic call [7]: inactive; negative
- mutagenic call (Test System: AMES SALMONELLA TYPHIMURIUM, Strain/Indicator: TA100, Metabolic Activation: S-9, Method: PREINCUBATION): inactive; negative
- mutagenic call [4]: active; positive
- mutagenic call (Test System: AMES SALMONELLA TYPHIMURIUM, Strain/Indicator: TA2638A, Metabolic Activation: NONE, Method: STANDARD PLATE): inactive; negative

Structure (SMILES): CC(=O)O[C@@H]1C(=O)O[C@H]2[C@@H]1OC(=O)[C@@H]2OC(C)=O
- mutagenic call [1]: inactive; negative
- mutagenic call (Test System: AMES SALMONELLA TYPHIMURIUM, Strain/Indicator: TA98, Metabolic Activation: S-9, Method: STANDARD PLATE): inactive; negative
- mutagenic call [3]: inactive; negative
- mutagenic call (Test System: AMES SALMONELLA TYPHIMURIUM, Strain/Indicator: TA100, Metabolic Activation: S-9, Method: STANDARD PLATE): inactive; negative
- mutagenic call (Test System: AMES SALMONELLA TYPHIMURIUM, Strain/Indicator: TA1537, Metabolic Activation: S-9, Method: STANDARD PLATE): inactive; negative
- mutagenic call (Test System: E. COLI, Strain/Indicator: WP2 (HCR), Metabolic Activation: NONE, Method: STANDARD PLATE): inactive; negative
- mutagenic call (Test System: E. COLI, Strain/Indicator: WP2 (HCR), Metabolic Activation: S-9, Method: STANDARD PLATE): inactive; negative

Structure (SMILES): COc1cccc2c(NCCCNCCCl)c3ccccc3nc12
- mutagenic call [1]: active; positive
- mutagenic call [3]: active; positive
- mutagenic call (Test System: AMES SALMONELLA TYPHIMURIUM, Strain/Indicator: TA1535, Metabolic Activation: NONE, Method: STANDARD PLATE): inactive; negative
- mutagenic call (Test System: AMES SALMONELLA TYPHIMURIUM, Strain/Indicator: TA1536, Metabolic Activation: NONE, Method: STANDARD PLATE): active; positive
- mutagenic call [5]: active; positive
- mutagenic call (Test System: AMES SALMONELLA TYPHIMURIUM, Strain/Indicator: TA1538, Metabolic Activation: NONE, Method: STANDARD PLATE): active; positive

Structure (SMILES): [O]=[Cd]
- mutagenic call (End Point: In vivo micronucleus, Test System: Peripheral blood lymphocytes, Species: Dog, Strain/Sex: Mongrel/Male, Female, Route: Oral): active; positive in group 2
- mutagenic call (Test System: AMES SALMONELLA TYPHIMURIUM, Strain/Indicator: TA98, Metabolic Activation: HAMSTER, LIVER, S-9, AROCLOR 1254 (10%), Method: PREINCUBATION): inactive; negative
- mutagenic call [6]: inactive; negative
- mutagenic call (Test System: AMES SALMONELLA TYPHIMURIUM, Strain/Indicator: TA98, Metabolic Activation: RAT, LIVER, S-9, AROCLOR 1254 (10%), Method: PREINCUBATION): inactive; negative
- mutagenic call (Test System: AMES SALMONELLA TYPHIMURIUM, Strain/Indicator: TA100, Metabolic Activation: HAMSTER, LIVER, S-9, AROCLOR 1254 (10%), Method: PREINCUBATION): inactive; negative
- mutagenic call [7]: inactive; negative
- mutagenic call (Test System: AMES SALMONELLA TYPHIMURIUM, Strain/Indicator: TA100, Metabolic Activation: RAT, LIVER, S-9, AROCLOR 1254 (10%), Method: PREINCUBATION): inactive; negative
- mutagenic call (Test System: AMES SALMONELLA TYPHIMURIUM, Strain/Indicator: TA1535, Metabolic Activation: HAMSTER, LIVER, S-9, AROCLOR 1254 (10%), Method: PREINCUBATION): inactive; negative
- mutagenic call (Test System: AMES SALMONELLA TYPHIMURIUM, Strain/Indicator: TA1535, Metabolic Activation: NONE, Method: PREINCUBATION): inactive; negative
- mutagenic call (Test System: AMES SALMONELLA TYPHIMURIUM, Strain/Indicator: TA1535, Metabolic Activation: RAT, LIVER, S-9, AROCLOR 1254 (10%), Method: PREINCUBATION): inactive; negative
- mutagenic call (Test System: AMES SALMONELLA TYPHIMURIUM, Strain/Indicator: TA1537, Metabolic Activation: HAMSTER, LIVER, S-9, AROCLOR 1254 (10%), Method: PREINCUBATION): inactive; negative
- mutagenic call (Test System: AMES SALMONELLA TYPHIMURIUM, Strain/Indicator: TA1537, Metabolic Activation: NONE, Method: PREINCUBATION): inactive; negative
- mutagenic call (Test System: AMES SALMONELLA TYPHIMURIUM, Strain/Indicator: TA1537, Metabolic Activation: RAT, LIVER, S-9, AROCLOR 1254 (10%), Method: PREINCUBATION): inactive; negative

Structure (SMILES): CCCN=NC(C)(C)OO
- mutagenic call (Test System: AMES SALMONELLA TYPHIMURIUM, Strain/Indicator: TA1535, Metabolic Activation: NONE): active; positive
- mutagenic call (Test System: E. COLI, Strain/Indicator: WP2 (HCR-), Metabolic Activation: NONE): active; positive

Structure (SMILES): CC(=O)ON(OCc1ccc(C(C)(C)C)cc1)C(=O)c1ccccc1
- mutagenic call [3]: active; positive
